Results: patent publication US6432682B1, “Substances KF-1040 and process for producing of the same” (The Kitasato Institute, priority 2000, dated 2002)
Values after ≈ are worked out from the molar mass of the structure shown.

What was measured:
[1] = target: diacylglycerol:acyltransferase; test: Inhibitory action to rat-originated diacylglycerol:acyltransferase (rat liver microsomal fraction); format: biochemical; conditions: 23° C., 15 minutes
Experimental: The activity of diacylglycerol:acyltransferase was determined by the modified method of Mayorek and Bar-Tana [J. Biol. Chem., 260, 6528-6532 (1985)].
Thus, a microsomal fraction prepared from rat liver was used as the enzyme source. To a 175 mM Tris-HCl buffer (pH 8.0) containing 8 mM of MgCl2, 1 mg/ml of bovine, serum albumin and 2.5 mM of diisopropyl fluorophosphate, there were added 0.75 mM of dioleoylglycerol and 30 μM of [1-^14C]-palmitoyl-CoA (0.02 μCi) and the total volume was adjusted to 200 μl, whereupon the enzymatic reaction mixture was incubated at 23° C. for 15 minutes. The total lipids were extracted with chloroform/methanol mixture and each lipid was separated by a TLC (with Kieselgel GF254 and a developer of petroleum ether/diethyl ether/acetic acid of 80/20/1), followed by determination of the radioactivity of the triacylglycerol fraction using RADIOSCANNER (of the firm AMBIS System Inc.) to determine the diacylglycerol:acyltransferase activity.

[2] = tested on: triacylglycerol formation in Raji cell originated from human Burkitt lymphoma; test: Inhibitory action to formation of triacylglycerol in human-originated cells (Raji cell); format: cell-based; conditions: 0.5 h, [1-14C]-oleic acid, 37° C., 30 minutes, read-out: drug concentration corresponding to 50% inhibition of triacylglycerol formation
Experimental: The assessment of influence of the substances on the triacylglycerol formation was performed in accordance with the method of Tomoda et al [J. Biol. Chem., 266, 4214-4219 (1991)] using human-originated cells (Raji cell originated from human Burkitt lymphoma).
A Raji cell dispersion of 2.7×10^6 cells per milliliter containing 0.36 nM [1-^14C]-oleic acid (0.02 μCi) in the presence or absence of the; substance was filled up to a total volume 200 μl, whereupon the reaction was caused at 37° C. for 30 minutes. The total lipids were extracted with chloroform/methanol (2/1) mixture. The subsequent procedures were carried out in the same manner as in the above experiment (1) “inhibitive action to rat-originated diacylglycerol-acyltransferase”.
The calculation of the drug concentration corresponding to 50% inhibition of triacylglycerol formation gives the values of 10 μg/ml for the KF-1040 substance A and 10 μg/ml for the KF-1040 substance B.

[3] = target: T1, acid sphingomyelinase originated from human placenta (Homo sapiens, UniProt P17405); test: Influence on human placenta-originated acid sphingomyelinase; format: biochemical; conditions: human placenta enzyme (Sigma), pH 5.0, 37° C., 30 minutes; read-out: concentration corresponding to 50% inhibition of acid sphingomyelinase (converted)
T1 construct: an acid sphingomyelinase originated from human placenta (a product of the firm Sigma) was used as the enzyme source; purchased Sigma; host or cells: human placenta
T1 sequence (P17405 47-631): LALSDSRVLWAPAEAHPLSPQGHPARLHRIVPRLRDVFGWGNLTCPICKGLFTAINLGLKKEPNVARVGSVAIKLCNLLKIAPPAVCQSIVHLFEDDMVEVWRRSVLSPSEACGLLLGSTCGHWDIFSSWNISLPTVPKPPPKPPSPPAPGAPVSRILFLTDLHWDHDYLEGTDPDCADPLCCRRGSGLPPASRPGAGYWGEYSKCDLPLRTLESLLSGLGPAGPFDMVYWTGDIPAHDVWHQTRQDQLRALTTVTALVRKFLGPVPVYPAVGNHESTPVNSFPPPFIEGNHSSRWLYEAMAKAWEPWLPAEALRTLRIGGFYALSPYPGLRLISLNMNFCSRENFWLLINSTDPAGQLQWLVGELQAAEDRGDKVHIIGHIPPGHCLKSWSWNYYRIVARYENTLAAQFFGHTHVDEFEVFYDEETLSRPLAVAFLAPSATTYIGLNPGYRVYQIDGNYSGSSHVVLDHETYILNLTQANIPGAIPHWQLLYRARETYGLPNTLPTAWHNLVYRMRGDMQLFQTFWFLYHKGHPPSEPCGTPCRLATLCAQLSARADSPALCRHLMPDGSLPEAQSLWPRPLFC
Experimental: The assessment of influence of the substances on human placenta-originated acidic sphingomyelinase was performed in accordance with the method of Jones et al [Biochem. Journal, 195, 373-382 (1981)] with partial modification.
Thus, an acid sphingomyelinase originated from human placenta (a product of the firm Sigma) was used as the enzyme source and thereto were added 250 mM of sodium acetate buffer solution (pH 5.0), 0.1% of NP-40 (of the firm Sigma), 25 μM [N-methyl-^3H]-sphingomyelin (0.006 μCi) and various concentrations of the substance, and the mixture was filled up to a total volume of 50 μl. After the reaction at 37° C. for 30 minutes, 200 μl of chloroform/methanol mixture (1/2 volume ratio) was added to the reaction mixture to separate the reaction product [^3H]-phosphocholine from the starting material [^3H]-sphingomyelin. The supernatant layer was taken up into a 50 μl vial. The amount of [^3H]-phosphocholine was quantitatively determined by a liquid scintillation counter to estimate the acid sphingomyelinase activity.

[4] = Acidic or alkaline nature; format: physicochemical
Solubility in solvents = format: physicochemical; conditions: in methanol, benzene, chloroform and ethyl acetate

Row | Structure (SMILES) | drug concentration corresponding to 50% inhibition of diacylglycerol:acyltransferase [1] | IC50 [2] | IC50 [3] | Acidic or alkaline nature [4] | Solubility in solvents (Solubility in solvents)
1 | CCC(C)CC(C)CC(C)C(OC1OC(COC(C)=O)C(O)C(O)C1O)C(C)C=C(C)C(O)C(C)C=C(C)C(O)C(C)C=C(C)C(=O)OCC(O)C(O)C(O)CO (stereo not shown) [KF-1040 substance B] | 9.0 µg/mL | 10 µg/mL (≈ 12.2 µM) | 29.3 µM | neutral | soluble in methanol, benzene, chloroform
2 | CCC(C)CC(C)CC(C)C(OC1OC(CO)C(O)C(O)C1O)C(C)C=C(C)C(O)C(C)C=C(C)C(O)C(C)C=C(C)C(=O)OCC(O)C(O)C(O)CO (stereo not shown) [KF-1040 substance A] | 16 µg/mL | 10 µg/mL (≈ 12.9 µM) | 61.8 µM | neutral | solule in methanol, benzene, chloroform
